Test results taken from US20070160684A1, “Methods for increasing cancer cell chemosensitivity” (priority 2005, published 2007).

Assays:
Format in all cases: cell-based
topo IIα = experiment: Western analysis of steady-state topo II levels in HS578T cells; settings: 1 μM Dox, various time points
Description: HS578T cells were treated with 1 μM Dox, and at various time points cell lysates were removed and subjected to Western analyses using monoclonal anti-topo IIα antibody (BD Biosciences, San Jose, Calif.). Control Western analyses were performed using monoclonal anti-actin antibodies.

[1] = system: ATM-deficient pEBS7 cells and ATM-proficient YZ5 cells; experiment: MTT cell viability assay; settings: Dox 0-1 μM
[2] = system: H2AX Ser139 phosphorylation; experiment: Western analysis of H2AX phosphorylation in Pa-4 and Pa-4/HMGA2 cells; settings: 1 μM Dox
Description: (§1) To ascertain whether HMGA2 effects Dox-induced ATM signaling activation, phosphorylation of ATM Ser1981 and H2AX Ser139 was assayed in the presence and absence of Dox (2 μM in ATM assays, 1 μM in H2AX assays). At various timepoints after Dox treatment, cell lysates were removed and subjected to Western analyses using monoclonal anti-phospho-ATM antibodies (Ser1981), polyclonal anti-ATM antibodies (Santa Cruz Biotechnology, Santa Cruz, Calif.), monoclonal anti-phospho-H2AX antibodies ([…]) (Upstate Cell Signaling), or anti-H2AX antibodies. Control Western analyses were performed using monoclonal anti-actin antibodies. […] HeLa and HeLa/HMGA2 cells
NU7026 (Calbiochem, San Diego, Calif.) was dissolved in DMSO at 5 mM and stored at −20° C. […] Cell lysates were removed and subjected to Western analyses using monoclonal anti-phospho-H2AX (Ser 139) antibodies. Control Western analyses were performed using monoclonal anti-actin antibodies.

ATM phosphorylation = experiment: Western analysis of ATM phosphorylation in HeLa and HeLa/HMGA2 cells; settings: Dox
Description: as §1
(§2) The effect of HMGA2 on ATM and H2AX phosphorylation in HeLa cells was measured using the protocol described above. […] As for H2AX, results were similar to those observed in Pa-4 cells.

H2AX phosphorylation [3] = experiment: Western analysis of H2AX phosphorylation in HeLa and HeLa/HMGA2 cells; settings: Dox
Description: as §1, §2

H2AX phosphorylation [4] = experiment: Western analysis of H2AX phosphorylation in U2OS.GK41 cells; settings: 2 μM Dox, 1 hour and 2 hours, cells expressing ATR-kd
Description: For experiments using U2OS.GK41 cells, cells were pre-treated with 1 μg/ml doxycycline for 48 […] to induce expression of ATR-kd. Non-induced control cells were pre-treated with vehicle only. Induced and non-induced cells were then treated with 2 μM Dox. At 1 hour and 2 hours after Dox treatment, cell lysates were removed and subjected to Western analyses using anti-phospho-H2AX or anti-actin antibodies.

[5] = system: DNA-PKcs pT2609 and pS2056; experiment: Western analysis of DNA-PKcs phosphorylation
Description: Dox treatment has been reported to lead to rapid and transient phosphorylation of DNA-PKcs at Thr-2609 (pT2609) and Ser-2056 (pS2056), respectively (Chen 2005). Equal amounts of protein lysates from HeLa and HeLa/HMGA2 cells were treated with 2 μM or 5 μM Dox, then subjected to Western analyses using polyclonal anti-phospho-DNA-PKcs-T2609/S2056 (Dr. David Chen, Univ. of Texas Southwestern Medical Center) and monoclonal anti-DNA-PKcs antibodies (Santa Cruz, Calif.). Control lysates were treated with vehicle only. Untreated and Dox-treated MO59K (DNA-PKcs proficient) and MO59J (DNA-PKcs deficient) cells were used as an additional control to assure antibody specificity.
To confirm that HMGA2 expression is at least in part responsible for sustained DNA-PKcs pT2609 and pS2056 signals following Dox exposure, siRNA was utilized to downregulate endogenous HMGA2 expression in Hs578T cells. siRNA against HMGA2 (si-HMGA2) was described previously (Boo 2005). The sense and antisense were annealed to a working concentration of 20 μM by incubation with annealing buffer (5×: 30 mM HEPES pH 7.4, 100 mM potassium acetate, 2 mM magnesium acetate) at 90° C. for one minute followed by incubation at 37° C. for one hour. The annealed siRNA was stored at −20° C. Transfection of siRNA was performed with GeneEraser (Stratagene, Calif.) according to manufacturer's instruction. Briefly, cells were seeded to a confluency of 50% on the day of transfection. GeneEraser was pre-incubated at room temperature in serum-free medium ten minutes before the addition of siRNA. The GeneEraser/si-HMGA2 solution was then incubated at room temperature for an additional 15 minutes before addition to cells in a serum-containing medium. The cells were allowed to incubate for various time periods without any medium change post-transfection. Control cells were transfected with a scrambled siRNA. Cells were treated with Dox 48 hours after transfection.

HMGA2/Ku70/Ku80 complex = experiment: Co-immunoprecipitation after Dox treatment
[6] = system: p53 Ser-15 and Chk2 Thr-68 phosphorylation; experiment: Western analysis of p53 and Chk2 phosphorylation in MO59J and MO59K cells
Description: To establish the role of DNA-PK in Dox-induced p53 and Chk2 phosphorylation, MO59J (DNA-PKcs-deficient) and MO59K (DNA-PKcs-proficient) cells were treated with Dox, and their p53 and Chk2 phosphorylation profiles were probed.

[7] = 10 μM Dox for 30 minutes, HeLa/HMGA2 cells

COc1cccc2c1C(=O)c1c(O)c3c(c(O)c1C2=O)C[C@@](O)(C(=O)CO)C[C@@H]3O[C@H]1C[C@H](N)[C@H](O)[C@H](C)O1 [Dox, doxorubicin]
steady-state topo II levels (topo IIα): remained comparable over the time course of Dox treatment | decrease in viability, pEBS7 versus YZ5 ([1]; 72 hours): less pronounced in the ATM-negative pEBS7 cells | cell viability ([1]; 72 hours after treatment): decreased cell viability in both cell types in a dose-dependent manner | induction of H2AX phosphorylation ([2]; Pa-4/HMGA2 cells): ablation of Dox-mediated induction of H2AX phosphorylation | H2AX phosphorylation ([2]; Pa-4 cells): rapid phosphorylation | ATM phosphorylation (ATM phosphorylation; HeLa cells): rapid phosphorylation of ATM in HeLa cells | ATM phosphorylation (ATM phosphorylation; HeLa/HMGA2 cells): no ATM phosphorylation was observed | induction of H2AX phosphorylation (H2AX phosphorylation [3]): ablation of Dox-mediated induction of phosphorylation | induction of H2AX phosphorylation (H2AX phosphorylation [4]): delay in Dox-mediated induction of H2AX phosphorylation | DNA-PKcs phosphorylation signals ([5]; 2 μM or 5 μM Dox, two hours, HeLa/HMGA2 cells): Accumulation of DNA-PKcs phosphorylation signals | DNA-PKcs phosphorylation signals, Hs578T versus HCC1419 ([5]; increasing concentrations of Dox): recapitulated in HMGA2-expressing Hs578T breast cancer cells, but not in HMGA2-underexpressing HCC1419 breast cancer cells | DNA-PKcs in the immunocomplexes of Ku80 (HMGA2/Ku70/Ku80 complex; [7]): enriched the amount of DNA-PKcs detected in the immunocomplexes of Ku80 | anti-Ku80-immunoprecipitated HMGA2 (HMGA2/Ku70/Ku80 complex; [7]): decrease in anti-Ku80-immunoprecipitated HMGA2 | interaction of endogenous HMGA2 with Ku80/Ku70 (HMGA2/Ku70/Ku80 complex; Dox, Hs578T cells): this interaction was disrupted upon Dox-treatment | p53 phosphorylation at Ser-15 ([6]; Dox, MO59J and MO59K cells): robust p53 phosphorylation at Ser-15 | Chk2 phosphorylation at Thr-68 ([6]; MO59J cells, 2 hours post-Dox treatment): barely detectable
